According to patent US20100330177A1, “PHARMACEUTICAL COMPOSITIONS OF A COMBINATION OF METFORMIN AND A DIPEPTIDYL PEPTIDASE-IV INHIBITOR” (Merck Sharp & Dohme Corp., priority 2009, published 2010):
Where a name gives a salt, the structure may show the parent alone.

Columns and labels:
Type 2 diabetes = conditions: oral administration, human Type 2 diabetics; cited from earlier work
[1] = in vitro dissolution profile of sitagliptin phosphate from the drug film layer; type: physicochemical; conditions: FIG. 2
Description: FIG. 2 is a graph showing in vitro dissolution profiles for sitagliptin phosphate from the drug film layer in a pharmaceutical composition of the present invention compared to sitagliptin phosphate in JANUMET™ which is a marketed fixed-dose combination of immediate-release metformin hydrochloride and immediate-release sitagliptin phosphate.

## Cn1c(=O)cc(N2CCC[C@@H](N)C2)n(Cc2ccccc2C#N)c1=O [alogliptin]
Type 2 diabetes
  effect on fasting glucose, postprandial glucose excursion and HbA1c: reduce fasting glucose and postprandial glucose excursion in association with significantly reduced HbA1c levels

## N[C@@H](CC(=O)N1CCn2c(nnc2C(F)(F)F)C1)Cc1cc(F)c(F)cc1F [sitagliptin phosphate, dihydrogenphosphate salt of (2R)-4-oxo-4-[3-(trifluoromethyl)-5,6-dihydro[1,2,4]triazolo[4,3-a]pyrazin-7(8H)-yl]-1-(2,4,5-trifluorophenyl)butan-2-amine]
[1]; sitagliptin phosphate from the drug film layer vs marketed immediate-release fixed-dose combination
  dissolution compared with sitagliptin phosphate in JANUMET: comparable to that of sitagliptin phosphate in JANUMET™
[1]; sitagliptin phosphate from the immediate-release drug film layer of the composition
  time to complete dissolution: ≤ 30 min

## N[C@@H](CC(=O)N1CCn2c(nnc2C(F)(F)F)C1)Cc1cc(F)c(F)cc1F [sitagliptin, (2R)-4-oxo-4-[3-(trifluoromethyl)-5,6-dihydro[1,2,4]triazolo[4,3-a]pyrazin-7(8H)-yl]-1-(2,4,5-trifluorophenyl)butan-2-amine]
Type 2 diabetes
  effect on fasting glucose, postprandial glucose excursion and HbA1c: reduce fasting glucose and postprandial glucose excursion in association with significantly reduced HbA1c levels

## N#C[C@@H]1CCCN1C(=O)CNC12CC3CC(CC(O)(C3)C1)C2 [vildagliptin]
Type 2 diabetes
  effect on fasting glucose, postprandial glucose excursion and HbA1c: reduce fasting glucose and postprandial glucose excursion in association with significantly reduced HbA1c levels
